Measured values taken from US12673947B2 (Cytosinlab Therapeutics Co., Ltd., priority 2020, dated 2026).
Read-outs that look alike come from different tables or passages of the source.

Experiments:
MV4;11 cells = experiment: MV4;11 in vitro inhibition of proliferation assay (CellTiter-Glo, 72 hours); type: cell-based; settings: IC50 class, read-out: Inhibitory activity of cell proliferation MV4;11
From the text: Biological Test Example 2: MV4;11 In Vitro Inhibition of Proliferation Assay
The MV4;11 cell lines were purchased from the cell bank of the Chinese Academy of Sciences, IMDM medium (Gibco, catalog number 12440), fetal bovine serum (Gibco, catalog number 10099141C), penicillin-streptomycin antibiotics (Gibco, catalog number 15140122), DMSO (Sigma, catalog number D2650), Celltiter-Glo kit (CTG) (Promega, catalog number G7573), 384-well clear flat-bottom black cell culture plate (Corning, catalog number 3764), D300e digital dispenser (Tecan, catalog number D300e), SpectraMax i3x microplate reader (MOLECULAR DEVICES, catalog number i3x)
MV4;11 cell was cultivated in IMDM, 10% fetal bovine serum, 1% penicillin-streptomycin antibiotics, and cell density was kept less than 1.0*10E6 cells per ml to ensure that it was always in logarithmic growth phase. Cell viability was greater than 95%.
The compounds to be tested was diluted by 3 times from 10 uM with DMSO to 9 concentrations. 60 nl diluted compound was added to the cell culture plate and three duplicates were set up.
The prepared MV4;11 cell suspension was added to the 384-well plate, and 20 microliters of cell suspension was added per well, i.e., each well contained 2000 MV4;11 cells, of which the final concentration of DMSO was 0.3%. The cell culture plate was placed in 37° C. and incubated in a 5% carbon dioxide incubator for 72 hours.
20 μL of Promega CellTiter-Glo reagent was added to per well, and the plate was incubated at room temperature for 10 minutes when the luminescence signals were stable. SpectraMax i3x microplate reader was used to read signals.
The original data was converted into inhibition rate, and the IC50 value (half inhibition concentration) of the compound was determined by fitting the nonlinear four-parameter curve.

FLT3 = biological target: T1, FLT3 (Homo sapiens, UniProt P36888); experiment: FLT3 kinase in vitro inhibitory activity experiment (Caliper mobility shift, conversion rate); type: biochemical; settings: IC50 class, read-out: Enzyme activity FLT3
T1 construct: purchased Carna 08-145
T1 sequence (P36888 27-993): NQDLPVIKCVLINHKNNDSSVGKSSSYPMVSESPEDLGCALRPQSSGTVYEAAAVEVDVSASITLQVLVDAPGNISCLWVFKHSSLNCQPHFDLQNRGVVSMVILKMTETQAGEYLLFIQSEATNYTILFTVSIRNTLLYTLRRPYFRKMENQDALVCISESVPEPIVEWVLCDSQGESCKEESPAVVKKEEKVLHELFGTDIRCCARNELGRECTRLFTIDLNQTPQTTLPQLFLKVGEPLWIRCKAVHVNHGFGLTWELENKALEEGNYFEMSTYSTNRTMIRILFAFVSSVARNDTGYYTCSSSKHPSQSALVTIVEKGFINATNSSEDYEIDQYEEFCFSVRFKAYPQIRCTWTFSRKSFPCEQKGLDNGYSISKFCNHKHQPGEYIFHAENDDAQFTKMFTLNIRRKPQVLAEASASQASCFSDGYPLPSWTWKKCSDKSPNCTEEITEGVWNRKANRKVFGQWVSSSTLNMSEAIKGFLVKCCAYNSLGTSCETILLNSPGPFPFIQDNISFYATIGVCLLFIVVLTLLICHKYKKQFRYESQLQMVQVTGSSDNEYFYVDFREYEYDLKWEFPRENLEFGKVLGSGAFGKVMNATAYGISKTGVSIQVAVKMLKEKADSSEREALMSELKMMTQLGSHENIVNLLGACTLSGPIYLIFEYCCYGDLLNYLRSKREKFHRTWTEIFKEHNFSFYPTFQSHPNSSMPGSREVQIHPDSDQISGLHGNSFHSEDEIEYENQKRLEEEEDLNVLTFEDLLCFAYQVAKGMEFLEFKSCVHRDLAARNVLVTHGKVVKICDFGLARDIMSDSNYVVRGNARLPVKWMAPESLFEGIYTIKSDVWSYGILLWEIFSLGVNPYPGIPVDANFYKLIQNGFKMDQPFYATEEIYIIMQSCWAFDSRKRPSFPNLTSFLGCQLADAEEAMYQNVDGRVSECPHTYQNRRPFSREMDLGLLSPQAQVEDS
Procedure: Biological Test Example 1: FLT3 Kinase In Vitro Inhibitory Activity Experiment
Centrifuge (manufacturer: Eppendorf, model: 5430), microplate reader (manufacturer: Perkin Elmer, model: Caliper EZ Reader II), Echo 550 (manufacturer: Labcyte, model: Echo 550)
1. Kinase Reaction Process
• (1) 1×Kinase buffer was prepared. • (2) Preparation of the serial compound dilutions: the initial stock (the concentration of the tested compound was 1 μM) was diluted by 3-fold into 10 concentrations, and was single-well detected. The compounds were series diluted to solutions of 10 different concentration (100-folds final concentration) in 384-well plates. 250 nl of solution was transferred to each well of 384-well plate by Echo550. 100% DMSO (250 nl) was added to negative control wells and positive control wells respectively. • (3) Kinase solution (2.5 times final concentration) was prepared with 1×Kinase buffer. • (4) 10 μL of kinase solution (2.5 times final concentration) was added to compound wells and positive control wells respectively: 1×Kinase buffer (10 μL) was added to the negative control wells. • (5) The solution was centrifuged at 1000 rpm for 30 seconds, shaked and mixed, and incubated at room temperature for 10 minutes. • (6) The mixed solution of ATP and Kinase substrate 2 (25/15 times final concentration) was prepared with 1×Kinase buffer. • (7) 15 μL of mixed solution ATP and Kinase substrate 2 (25/15 times final concentration) was added to initiated the reaction. • (8) 384 well plate was centrifuged at 1000 rpm for 30 seconds, shaked and mixed, then incubated at room temperature for 30 minutes. • (9) Stop solution (30 μL) was added to stop kinase reaction, and the solution was centrifuged at 1000 rpm for 30 seconds, shaked and mixed. • (10) The conversion rate was read with Caliper EZ Reader II. 2. Data Analysis Formula for Calculation
Wherein: Conversion %_sample is the reading of the sample conversion; Conversion %_min: negative control well.

For `CCc1nc2c(N)ncc(-c3cnn(C4C[C@H]5CC[C@@H](C4)N5)c3)c2nc1N[C@@H]1CC[C@H](O)C1` (single isomer, unassigned) [Compound 162], the IC50 (MV4;11 cells) was 100 to 500 nM and the IC50 (FLT3) was ≤ 10 nM.

In the case of `CCc1nc2c(N)ncc(-c3cnn(C4C[C@H]5CC[C@@H](C4)N5)c3)c2nc1N[C@@H]1CC[C@H](O)C1` (single isomer, unassigned) [Compound 163], the IC50 (MV4;11 cells) is reported as 10 to 100 nM and the IC50 (FLT3) is reported as ≤ 10 nM.

For `CCc1nc2c(N)ncc(-c3cnn(C4C[C@H]5CC[C@@H](C4)N5C)c3)c2nc1N[C@@H]1CC[C@H](O)C1` (single isomer, unassigned) [Compound 164], the IC50 (MV4;11 cells; Homo sapiens, MV4-11, 72 h) was 10 to 100 nM and the IC50 (FLT3) was ≤ 10 nM.

For `CCc1nc2c(N)ncc(-c3cnn(C4C[C@H]5CC[C@@H](C4)N5C)c3)c2nc1N[C@@H]1CC[C@H](O)C1` (single isomer, unassigned) [Compound 165], the IC50 (MV4;11 cells) was ≤ 10 nM and the IC50 (FLT3) was ≤ 10 nM.

For `CCc1nc2c(N)ncc(-c3cnn(C4CCC(C)(O)CC4)c3)c2nc1N[C@@H]1CC[C@H](O)C1` (single isomer, unassigned) [Compound 284], the IC50 (MV4;11 cells; Homo sapiens, MV4-11, 72 h) was ≤ 10 nM and the IC50 (FLT3) was ≤ 10 nM.

For `CCc1nc2c(N)ncc(-c3cnn(C4CCC(C)(O)CC4)c3)c2nc1N[C@@H]1CC[C@H](O)C1` (single isomer, unassigned) [Compound 285], the IC50 (MV4;11 cells) was ≤ 10 nM and the IC50 (FLT3) was ≤ 10 nM.

For `CCc1nc2c(N)nccc2nc1NC1CCOCC1` [Compound 1], the IC50 (MV4;11 cells; Homo sapiens, MV4-11, 72 h) was > 500 nM and the IC50 (FLT3) was > 500 nM.

For `CCc1nc2c(N)ncc(Br)c2nc1NC1CCOCC1` [Compound 2, 8-Bromo-3-ethyl-N2-(tetrahydro-2H-pyran-4-yl)pyridino[3,4-b]pyrazine-2,5-diamine], the IC50 (MV4;11 cells; Homo sapiens, MV4-11, 72 h) was > 500 nM and the IC50 (FLT3) was 100 to 500 nM.

With `CCc1nc2c(N)ncc(-c3ccc(N4CCC(N5CCN(C)CC5)CC4)c(S(C)(=O)=O)c3)c2nc1NC1CCOCC1` [Compound 18, 3-ethyl-8-(4-(4-(4-methylpiperazine-1-yl)piperidine-1-yl)-3-(methylsulfyl)phenyl)-N2-(tetrahydro-2H-pyran-4-yl) pyridino [3,4-b] pyrazine-2,5-diamine] the IC50 (FLT3) was 10 to 100 nM.

In the case of `CCc1nc2c(N)ncc(-c3ccc(N4CCC(N5CCN(C)CC5)CC4)c(C(C)(C)O)c3)c2nc1NC1CCOCC1` [Compound 19, 2-(5-(5-amino-3-ethyl-2-((tetrahydro-2H-pyran-4-yl)amino)pyridino[3,4-b]pyrazine-8-yl)-2-(4-(4-methylpiperazine-1-yl)piperidine-1-yl)phenyl)propan-2-ol], the IC50 (FLT3) is reported as ≤ 10 nM.

Work on `COc1cc(-c2cnc(N)c3ncc(NC4CCOCC4)nc23)ccc1N1CCC(N2CCN(C)CC2)CC1` [Compound 25] yielded an IC50 (FLT3) of 10 to 100 nM.

`CCc1nc2c(N)ncc(-c3ccn(C)c3)c2nc1NC1CCOCC1` [Compound 56] was tested, and the IC50 (FLT3) was 10 to 100 nM.

In the case of `CCc1nc2c(N)ncc(-c3cnn(C)c3)c2nc1NC1CCOCC1` [Compound 57], the IC50 (FLT3) is reported as 10 to 100 nM.

`CCc1nc2c(N)ncc(-c3ccc4c(c3)OCCN4C)c2nc1NC1CCOCC1` [Compound 61] gave an IC50 (FLT3) of 10 to 100 nM.

With `CCc1nc2c(N)ncc(-c3ccc(N4CCC(N5CCN(C)CC5)CC4)c(OC)c3)c2nc1NC` [Compound 76] the IC50 (FLT3) was 10 to 100 nM.

With `CCc1nc2c(N)ncc(-c3ccc(N4CCC(N5CCN(C)CC5)CC4)c(OC)c3)c2nc1NC1CCC(O)CC1` (stereo not drawn) [Compound 82] the IC50 (MV4;11 cells; Homo sapiens, MV4-11, 72 h) was 10 to 100 nM.

With `CCc1nc2c(N)ncc(-c3ccc(N4CCC(N5CCN(C)CC5)CC4)c(OC)c3)c2nc1N[C@H]1CC[C@@H](O)CC1` [Compound 82] the IC50 (FLT3) was ≤ 10 nM.

In the case of `CCc1nc2c(N)ncc(-c3cnn(CC4CCN(C)CC4)c3)c2nc1NC1CCOCC1` [Compound 137], the IC50 (FLT3) is reported as ≤ 10 nM.

`CCc1nc2c(N)ncc(Br)c2nc1N[C@@H]1CC[C@H](O)C1` [Compound 151, (1S, 3R)-3-((5-amino-8-bromo-3-ethylpyridino[3,4-b]pyrazine-2-yl)amino)cyclopentan-1-ol] was tested, and the IC50 (FLT3) was 100 to 500 nM.

With `CCc1nc2c(N)ncc(-c3cnn(CC4CCNCC4)c3)c2nc1NC1CCOCC1` [Compound 154] the IC50 (FLT3) was ≤ 10 nM.

`CCc1nc2c(N)ncc(-c3cnn(C4CCN(c5cc(F)cc(F)c5)CC4)c3)c2nc1N[C@@H]1CC[C@H](O)C1` [Compound 173] was tested, and the IC50 (FLT3) was ≤ 10 nM.

With `CCc1nc2c(N)ncc(-c3cnn(C4CCOCC4)c3)c2nc1N[C@@H]1CC[C@H](O)C1` [Compound 191] the IC50 (MV4;11 cells; Homo sapiens, MV4-11, 72 h) was ≤ 10 nM.

With `CCc1nc2c(N)ncc(-c3cnn(C4CCN(CCO)CC4)c3)c2nc1N[C@H]1CCOC1` [Compound 229] the IC50 (FLT3) was ≤ 10 nM.

In the case of `CCc1nc2c(N)ncc(-c3cnn(C(C)C)c3)c2nc1N[C@H]1CCOC1` [Compound 230], the IC50 (FLT3) is reported as ≤ 10 nM.

In the case of `CCc1nc2c(N)ncc(-c3cnn(C4COC4)c3)c2nc1N[C@H]1CCOC1` [Compound 231], the IC50 (FLT3) is reported as ≤ 10 nM.

In the case of `CCc1nc2c(N)ncc(-c3cnn(C4CCN(C5CCN(C)CC5)CC4)c3)c2nc1N[C@@H]1CCOC1` [Compound 250], the IC50 (FLT3) is reported as ≤ 10 nM.

In the case of `CCc1nc2c(N)ncc(-c3ccc(N4CCC(N5CCN(C)CC5)CC4)c(OC)c3)c2nc1N[C@H]1CCC[C@@H](O)C1` [Compound 255], the IC50 (FLT3) is reported as ≤ 10 nM.

In the case of `CCc1nc2c(N)ncc(-c3ccc(N4CCC(N5CCN(C)CC5)CC4)c(OC)c3)c2nc1N[C@H]1CCC[C@H](O)C1` [Compound 256], the IC50 (FLT3) is reported as ≤ 10 nM.

In the case of `CCc1nc2c(N)ncc(-c3cnn(C4CCNCC4)c3)c2nc1N[C@@H]1CCOC1` [Compound 258], the IC50 (FLT3) is reported as ≤ 10 nM.

For `CCc1nc2c(N)ncc(-c3cnn(C4CCNCC4)c3)c2nc1N[C@H]1CCOC1` [Compound 259, (S)-3-ethyl-8-(1-(piperidin-4-yl)-1H-pyrazol-4-yl)-N2-(tetrahydrofuran-3-yl)pyridino[3,4-b]pyrazin-2,5-diamine], the IC50 (FLT3) was ≤ 10 nM.

Work on `CCc1nc2c(Nc3cccnc3)ncc(-c3cnn(C4CCNCC4)c3)c2nc1N[C@@H]1CC[C@H](O)C1` [Compound 262] yielded an IC50 (FLT3) of 10 to 100 nM.

`CCc1nc2c(N)nccc2nc1N[C@@H]1CC[C@H](O)C1` [Compound 263, (1S,3R)-3-((5-amino-3-ethylpyridino[3,4-b]pyrazine-2-yl)amino)cyclopentan-1-ol] was tested, and the IC50 (FLT3) was > 500 nM.

For `CCc1nc2c(N)ncc(-c3cnn(C4CCN(C)CC4)c3)c2nc1N(C)CC(C)(C)O` [Compound 264], the IC50 (FLT3) was ≤ 10 nM.

With `CCc1nc2c(N)ncc(-c3cnn(-c4ccc(C#N)cn4)c3)c2nc1N[C@@H]1CC[C@H](O)C1` [Compound 300] the IC50 (MV4;11 cells; Homo sapiens, MV4-11, 72 h) was ≤ 10 nM.
